Results taken from article PMC7822874, “Chemoprotective antimalarials identified through quantitative high-throughput screening of Plasmodium blood and liver stage parasites” (Scientific Reports, 2021).
“And” between values parts separate entries of the source, which are not always exact repeats. Equal entries are not always repeated.

Tests used:
[1] = tested on: T1, Plasmodium falciparum Dd2-attB-ScDHODH (transgenic line expressing yeast DHODH), asexual blood stages; experiment: organism not typed; design: replicate k of 3 (each line is one of three independent assays; the three lines of one compound and parasite line follow each other)
T1 construct: Dd2-attB-ScDHODH, the transgenic line that expresses yeast DHODH
Experimental: The overexpression of the fumarate-dependent yeast DHODH confers resistance to compounds that inhibit the parasite mETC, or the parasite DHODH enzyme that depends on ubiquinone provided by the parasite mETC. Assays were performed in three independent assays on a subset of compounds, and differences between the Dd2-attB parental line and the ScDHODH transgenic line were analyzed using two-sided Student’s t-tests.

[2] = tested on: T2, Plasmodium falciparum Dd2-attB (parental line), asexual blood stages; experiment: microbe, parasite or virus in culture; design: replicate k of 3 (each line is one of three independent assays; the three lines of one compound and parasite line follow each other); conditions: n = 1; for AC50: Plasmodium falciparum, DD2, 72 h, read-out: Individual replicates / Log AC50 (converted); for Individual replicates / Log AC50 (M): 72 h
T2 construct: Dd2-attB, the isogenic parental line
In short: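 Three independent runs, compound subset only; parental vs ScDHODH line compared by two-sided Student's t-test.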

[3] = 72 h; n = 1; read-out: Individual replicates / Log AC50 (converted)

Row | SMILES | Individual replicates / Log AC50 (M) ([1]; 72 h; n = 1) | AC50 [1, 3] [µM] | AC50 [2] [µM] | Individual replicates / Log AC50 (M) ([1]; 72 h, n = 1) | Individual replicates / Log AC50 (M) [2]
1 | CCOC(=O)c1ccc(O)c2ncc(-c3ccc(C(=N)N)cc3)cc12 [NCGC00241050-01] | -4.6986 Log AC50 (M) | 20 | 17.8 |  | 
2 | CC1(C)OB(c2ccc(O)c3ncc(N4CCNCC4)cc23)OC1(C)C [NCGC00241053-01] |  | 7.1 | 8.94 | -5.0486 Log AC50 (M) and -4.9986 Log AC50 (M) | -4.8986 Log AC50 (M) and -5.0486 Log AC50 (M)
3 | N=C(N)c1cccc(-c2cnc3c(O)ccc(C(=O)O)c3c2)c1 [NCGC00241054-02] |  | 14.2 | 10 | -4.7486 Log AC50 (M) and -4.8486 Log AC50 (M) | -4.8986 Log AC50 (M) and -4.9486 Log AC50 (M)
4 | NC(=O)c1cccc(-c2cnc3c(O)ccc(C(=O)O)c3c2)c1 [NCGC00241055-01] |  | 14.2 | 15.9 |  | 
5 | O=C(O)c1ccc(O)c2ncc(-c3ccc(N4CCOCC4)cc3)cc12 [NCGC00241754-01] |  | 14.2 | 15.9 |  | -4.7986 Log AC50 (M)
6 | O=C(O)c1ccc(O)c2ncc(N3CCC(N4CCOCC4)C3)cc12 (stereo not drawn) [NCGC00241757-01] | -4.7986 Log AC50 (M) | 15.9 | 10 |  | -4.9486 Log AC50 (M) and -4.7986 Log AC50 (M)
7 | O=C(O)c1ccc(O)c2ncc(N3CCCN(C4CCCC4)CC3)cc12 [NCGC00241765-01] |  | 20 | 17.8 | -4.7486 Log AC50 (M) and -4.6986 Log AC50 (M) | -4.7486 Log AC50 (M)
8 | CC(Cc1cnccn1)Nc1cnc2c(O)ccc(C(=O)O)c2c1 (stereo not drawn) [NCGC00241766-01] |  | 7.97 | 15.9 |  | -4.8486 Log AC50 (M)
9 | CCOC(=O)c1ccc(OC(C)=O)c2ncc(N3CCOCC3)cc12 [NCGC00244523-01] | -5.3486 Log AC50 (M) | 4.48 | 4.48 |  | -5.3486 Log AC50 (M) and -5.3986 Log AC50 (M)
10 | CN(C)C(=O)c1cccc(-c2cc(O)c3ncccc3c2)c1 [NCGC00244525-01] |  | 6.33 | 7.1 | -5.1986 Log AC50 (M) and -5.0986 Log AC50 (M) | -5.2486 Log AC50 (M) and -5.1486 Log AC50 (M)
11 | CN(C)CCNC(=O)c1cccc(-c2cc(O)c3ncccc3c2)c1 [NCGC00244526-01] |  | 17.8 | 14.2 | -4.7986 Log AC50 (M) | -5.0986 Log AC50 (M) and -4.9486 Log AC50 (M)
12 | CN(C)CCCCNC(=O)c1cccc(-c2cc(O)c3ncccc3c2)c1 [NCGC00244528-01] |  | 15.9 | 17.8 | -4.7486 Log AC50 (M) | -4.8986 Log AC50 (M) and -4.8486 Log AC50 (M)
13 | O=C(c1cccc(-c2cc(O)c3ncccc3c2)c1)N1CCCCC1 [NCGC00244533-01] |  | 7.1 | 6.33 | -5.1486 Log AC50 (M) and -4.9486 Log AC50 (M) | -5.0486 Log AC50 (M) and -5.0986 Log AC50 (M)
14 | O=C(c1cccc(-c2cc(O)c3ncccc3c2)c1)N1CCOCC1 [NCGC00244534-01] |  | 14.2 | 12.6 | -5.0486 Log AC50 (M) | -5.0486 Log AC50 (M) and -5.0986 Log AC50 (M)
15 | O=C(NCCN1CCOCC1)c1cccc(-c2cc(O)c3ncccc3c2)c1 [NCGC00244535-01] |  |  | 6.33 | -5.1986 Log AC50 (M) and -4.7986 Log AC50 (M) | -4.8986 Log AC50 (M) and -5.0986 Log AC50 (M)
16 | O=C(NCCCc1ccccc1)c1cccc(-c2cc(O)c3ncccc3c2)c1 [NCGC00244536-01] |  |  | 7.1 | -4.8986 Log AC50 (M) | -5.2486 Log AC50 (M) and -5.1986 Log AC50 (M)
17 | CN(C)CC1CCN(C2CCN(C(=O)c3cccc(-c4cc(O)c5ncccc5c4)c3)CC2)CC1 [NCGC00247736-01] |  |  |  | -4.7986 Log AC50 (M) and -5.0486 Log AC50 (M) | -5.3486 Log AC50 (M) and -4.8486 Log AC50 (M) and -5.1486 Log AC50 (M)
18 | CN(C)CC1CCCN(C2CCN(C(=O)c3cccc(-c4cc(O)c5ncccc5c4)c3)CC2)C1 (stereo not drawn) [NCGC00247737-01] |  | 6.33 | 5.64 | -5.4486 Log AC50 (M) | -5.3986 Log AC50 (M) and -5.3486 Log AC50 (M)
